Where “and” joins values, the source holds several entries; their conditions need not be identical. Equal values may be shown once. Read-outs that look alike come from different tables or passages of the source.

Series [1] has as its system HL-60 (promyelocytic leukemia). As to the kind of experiment: cells. In kind it is cell-based, human. The following applies: read-out: Cancer cell line IC50, HL-60.
For series [2], the system named is SMMC-7721 (hepatocarcinoma). Put plainly: cells. In kind it is cell-based, human. To be noted: read-out: Cancer cell line IC50, SMMC-7721.
The subject of a further series is A549 (lung carcinoma). Put plainly: cells. The format is cell-based, human.
Series [3] deals with MCF-7 (breast adenocarcinoma). As to the kind of experiment: cells. In kind it is cell-based, human. To be noted: read-out: Cancer cell line IC50, MCF-7.
The test system of series [4] is SW-480 (colon adenocarcinoma). Put plainly: cells. In kind it is cell-based, human. To be noted: read-out: Cancer cell line IC50, SW480.
Series [5] concerns BEAS-2B normal cell line (human bronchial epithelial cell). The following applies: for IC50: read-out: Cancer cell line IC50, BEAS-2B.
In series [6] the test system is HL-60, SMMC-7721, A549, MCF-7 and SW-480 human cancer cell lines. Put plainly: cells. The format is cell-based. To be noted: read-out: IC50 values across the five cancer cell lines.
Series [7] has as its system BEAS-2B normal cell line (human bronchial epithelial cell). As to the kind of experiment: cells. The following applies: read-out: Cancer cell line IC50, BEAS-2B.
Where [8] appears, read: read-out: Cancer cell line IC50, A549.
Setting [9] is: Homo sapiens, A549, 48 h, read-out: Cancer cell line IC50, A549.
Setting [10] is: Homo sapiens, A549, read-out: Cancer cell line IC50, A549.

In general, IC50 refers to the midpoint of a concentration-inhibition curve. For the compound `N.N.[Cl][Pt][Cl]` [Cisplatin, cisplatin, reference compound], the IC50 in series [1] is 1.91 µM; in series [2], 5.81 µM; in the series on A549 (lung carcinoma) (setting [8]) it was 6.43 µM and 9.72 µM; in series [3], 13.3 µM; in series [4], 12 µM; in series [5] it was 9.53 µM.
With `C/C=C\C(=O)O[C@@H]1C[C@H]2O[C@@]34C=C(C)C(=O)C[C@]3(C)[C@]1(C)[C@]2(CO)O4` [Compound 1, engleromycone A], the IC50 in series [1] (Homo sapiens, HL-60, 48 h) was found to be 14.3 µM; in series [2] (Homo sapiens, SMMC-7721, 48 h), 19.1 µM; in the series with A549 (lung carcinoma) (setting [9]) it was 19.1 µM; with A549 (lung carcinoma) (setting [10]), 18.9 µM; in series [3] (Homo sapiens, MCF7, 48 h) it was 18 µM; in series [4] (Homo sapiens, SW480, 48 h), 20.2 µM. In addition, the IC50 was 14.3 to 20.2 µM in series [6] (Homo sapiens, 48 h) and 19.4 µM in series [7]. In addition, the “selective cytotoxicity against the A549 cell line” value (“selective cytotoxicity” for short) in series [5] is “did not exhibit selective cytotoxicity”.
Consider `C=C1[C@H]2C[C@@H](OC(=O)/C=C\C)[C@]1(C)[C@@]1(C)CC(=O)C(C)=C[C@H]1O2` [Compound 2, engleromycone B], for which the IC50 in series [1] (Homo sapiens, HL-60, 48 h) is 2.7 µM; in series [2] (Homo sapiens, SMMC-7721, 48 h) it was 8.41 µM; in the series with A549 (lung carcinoma) (setting [9]), 2.98 µM; with A549 (lung carcinoma) (setting [10]), 5.82 µM; in series [3] (Homo sapiens, MCF7, 48 h), 21.1 µM; in series [4] (Homo sapiens, SW480, 48 h), 9.25 µM. For the same compound, the IC50 in series [6] (Homo sapiens, 48 h) was 2.7 to 21.1 µM; in series [7], 9.87 µM. In series [5], the “selective cytotoxicity” value is “did not exhibit selective cytotoxicity”.
Regarding `CC1=C[C@]23O[C@@H]4[C@@H](O)C[C@](C)([C@@]2(C)CC1)[C@]4(CO)O3` [Compound 3, sambucinol], the IC50 in series [1] (Homo sapiens, HL-60, 48 h) was more than 40 µM; in series [2] (Homo sapiens, SMMC-7721, 48 h) it was more than 40 µM; with A549 (lung carcinoma) (setting [9]) it was more than 40 µM; in series [3] (Homo sapiens, MCF7, 48 h), more than 40 µM; in series [4] (Homo sapiens, SW480, 48 h) it was more than 40 µM; in series [6] (Homo sapiens, 48 h), more than 40 µM.
As to `CC1=C[C@]23O[C@@H]4CC[C@](C)([C@@]2(C)CC1)[C@]4(CO)O3` [Compound 4, 3-deoxysambucinol], the IC50 is more than 40 µM in series [1] (Homo sapiens, HL-60, 48 h); more than 40 µM in series [2] (Homo sapiens, SMMC-7721, 48 h); more than 40 µM in the series with A549 (lung carcinoma) (setting [9]); more than 40 µM in series [3] (Homo sapiens, MCF7, 48 h); more than 40 µM in series [4] (Homo sapiens, SW480, 48 h); more than 40 µM in series [6] (Homo sapiens, 48 h).
In the case of `CC1=C[C@H]2O[C@@H]3C[C@@H](O)[C@](C)([C@@]2(C)CC1=O)[C@]31CO1` [Compound 5, trichothecolone], the IC50 in series [1] is 4.86 µM; in series [2] it was 6.92 µM; with A549 (lung carcinoma) (setting [8]) it was 4.16 µM and 5.71 µM; in series [3] it was 16.5 µM; in series [4], 8.52 µM; in series [5], 4.18 µM. Further, the “selective cytotoxicity” value in series [5] is given as “did not exhibit selective cytotoxicity”.
Regarding `C/C=C\C(=O)O[C@@H]1C[C@H]2O[C@@H]3C=C(C)C(=O)C[C@]3(C)[C@]1(C)[C@]21CO1` [Compound 8, trichothecin], the IC50 in series [1] is 0.14 µM; in series [2], 0.22 µM; in the series with A549 (lung carcinoma) (setting [8]), 0.2 µM and 0.22 µM; in series [3], 0.21 µM; in series [4] it was 0.18 µM; in series [6], less than 3.5 µM. Further, the IC50 in series [5] worked out at 0.27 µM. Also, in series [5], the “selective cytotoxicity” value is “did not exhibit selective cytotoxicity”.
As for `C/C=C\C(=O)O[C@@H]1[C@@H](O)[C@H]2O[C@@H]3C=C(C)C(=O)C[C@]3(C)[C@]1(C)[C@]21CO1` [Compound 10, trichothecinol A], the IC50 in series [1] is 0.022 µM; in series [2] it was 0.02 µM; with A549 (lung carcinoma) (setting [8]), 0.015 µM and 0.016 µM; in series [3], 0.006 µM; in series [4], 0.011 µM; in series [6], less than 3.5 µM. Further, in series [5], the IC50 worked out at 0.025 µM. Besides, in series [5], the “selective cytotoxicity” value is recorded as “did not exhibit selective cytotoxicity”.
Take `CC(=O)O[C@H]1C(=O)[C@@]2(C)[C@H]([C@H](OC(=O)c3ccccc3)[C@]3(O)C[C@H](OC(=O)[C@H](O)[C@@H](NC(=O)c4ccccc4)c4ccccc4)C(C)=C1C3(C)C)[C@]1(OC(C)=O)CO[C@@H]1C[C@@H]2O` [Taxol, paclitaxel, reference compound]: the IC50 in series [1] (Homo sapiens, HL-60, 48 h) was less than 0.008 µM; in series [2] (Homo sapiens, SMMC-7721, 48 h), less than 0.008 µM; in the series on A549 (lung carcinoma) (setting [9]), less than 0.008 µM; with A549 (lung carcinoma) (setting [10]) it was less than 0.008 µM; in series [3] (Homo sapiens, MCF7, 48 h), less than 0.008 µM; in series [4] (Homo sapiens, SW480, 48 h), less than 0.008 µM. Besides, the IC50 in series [7] is less than 0.98 µM.

For the origin of these results see publication PMC4328002 (Natural Products and Bioprospecting, 2015).
